#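 Interpolation was linear, between the two tested concentrations surrounding the appropriate level; five concentrations were tested over 48 hours in 96-well plates. GI50 = concentration required for 50% inhibition of growth.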 Active and inactive are the calls of the source. Rule as the data show it: active = GI50 up to about 1.1 µM and inactive = higher. Where a SMILES comes first, the peptide text is derived from it.
# Legend:
# Assay in all cases: NCI tumour cell line growth inhibition, 48 h
# ACHN = system: ACHN
# MDA-MB-435 = system: MDA-MB-435
# CAKI-1 = system: CAKI-1
# RPMI-8226 = system: RPMI-8226
# 786-0 = system: 786-0
# MDA-N = system: MDA-N
# SNB-75 = system: SNB-75
# K562 = system: K562
# A498 = system: A498
# A549 = system: A549
# HL-60 = system: HL-60
# UACC-257 = system: UACC-257
# MCF7 = system: MCF7
# NCI-H23 = system: NCI-H23
# HCT-15 = system: HCT-15
# Hs-578T = system: Hs-578T
# IGROV-1 = system: IGROV-1
# SK-MEL-2 = system: SK-MEL-2
# UO-31 = system: UO-31
# HCT-116 = system: HCT-116
SMILES,GI50 (ACHN),GI50 (MDA-MB-435),GI50 (CAKI-1),GI50 (RPMI-8226),GI50 (786-0),GI50 (MDA-N),GI50 (SNB-75),GI50 (K562),GI50 (A498),GI50 (A549),GI50 (HL-60),GI50 (UACC-257),GI50 (MCF7),GI50 (NCI-H23),GI50 (HCT-15) [µM],GI50 (Hs-578T),GI50 (IGROV-1),GI50 (SK-MEL-2),GI50 (UO-31),GI50 (HCT-116)
Nc1ccc(-c2nc3ccccc3s2)cc1Br,> 80.9 µM (inactive),> 100 µM (inactive),> 100 µM (inactive),70.8 µM (inactive),76.9 µM (inactive),> 100 µM (inactive),31.3 µM (inactive),87.1 µM (inactive),2.44 µM (inactive),> 100 µM (inactive),> 100 µM (inactive),> 100 µM (inactive),< 0.01 µM (active),63.7 µM (inactive),62.8,24 µM (inactive),< 0.01 µM (active),> 100 µM (inactive),27.5 µM (inactive),–
Nc1nc(N)c2nnn(C[C@H]3CC[C@@H](CO)C3)c2n1,> 100 µM (inactive),> 100 µM (inactive),> 100 µM (inactive),> 100 µM (inactive),> 100 µM (inactive),> 100 µM (inactive),> 100 µM (inactive),> 100 µM (inactive),> 100 µM (inactive),> 100 µM (inactive),> 100 µM (inactive),> 100 µM (inactive),> 100 µM (inactive),> 100 µM (inactive),> 100,> 100 µM (inactive),54.7 µM (inactive),–,> 100 µM (inactive),> 100 µM (inactive)
Cc1ccc(C2=NN=C3C(c4ccccc4)=Nc4ccccc4N3C2)cc1,16.7 µM (inactive),16.3 µM (inactive),19.7 µM (inactive),5.98 µM (inactive),6.56 µM (inactive),32.9 µM (inactive),–,4.61 µM (inactive),> 53.1 µM (inactive),27.7 µM (inactive),1.92 µM (inactive),4.03 µM (inactive),8.38 µM (inactive),25.7 µM (inactive),4.73,9.16 µM (inactive),13.1 µM (inactive),22.6 µM (inactive),4.1 µM (inactive),5.28 µM (inactive)
COc1cc(/C=C/C(=N\NS(=O)(=O)c2ccc(C)cc2)c2sc(NNC(C)=O)nc2C)ccc1O,> 100 µM (inactive),> 100 µM (inactive),> 100 µM (inactive),> 100 µM (inactive),> 100 µM (inactive),> 100 µM (inactive),> 100 µM (inactive),–,> 100 µM (inactive),> 100 µM (inactive),> 100 µM (inactive),> 100 µM (inactive),> 100 µM (inactive),> 100 µM (inactive),> 100,> 100 µM (inactive),> 100 µM (inactive),> 100 µM (inactive),> 100 µM (inactive),> 100 µM (inactive)
Cc1cc2[nH]c3[nH]c(=O)[nH]c(=O)c3c2cc1C,> 100 µM (inactive),> 100 µM (inactive),> 100 µM (inactive),> 100 µM (inactive),> 100 µM (inactive),> 100 µM (inactive),> 100 µM (inactive),–,> 100 µM (inactive),> 100 µM (inactive),> 10 µM (inactive),> 100 µM (inactive),> 100 µM (inactive),> 100 µM (inactive),> 100,69 µM (inactive),> 100 µM (inactive),74.5 µM (inactive),> 100 µM (inactive),> 100 µM (inactive)
CC(C)C(/C=C/c1ccc(Cl)c(Cl)c1)=N\NC(=O)N/N=C(/C=C/c1ccc(Cl)c(Cl)c1)C(C)C,> 100 µM (inactive),> 100 µM (inactive),> 100 µM (inactive),> 100 µM (inactive),> 100 µM (inactive),> 100 µM (inactive),> 100 µM (inactive),> 100 µM (inactive),> 100 µM (inactive),–,80 µM (inactive),> 100 µM (inactive),> 100 µM (inactive),> 100 µM (inactive),> 100,> 100 µM (inactive),> 100 µM (inactive),–,> 100 µM (inactive),–
NCCSS(=O)(=O)CCN,> 100 µM (inactive),> 100 µM (inactive),> 100 µM (inactive),> 100 µM (inactive),> 100 µM (inactive),> 100 µM (inactive),> 100 µM (inactive),> 100 µM (inactive),> 100 µM (inactive),> 100 µM (inactive),> 100 µM (inactive),–,> 100 µM (inactive),> 100 µM (inactive),> 100,> 100 µM (inactive),> 100 µM (inactive),> 100 µM (inactive),> 100 µM (inactive),> 100 µM (inactive)
COc1nc(SC)nc2c1C(O)n1c(nc3ccccc31)S2 (centres undefined),18.4 µM (inactive),20.1 µM (inactive),41.3 µM (inactive),0.42 µM (active),6.65 µM (inactive),40.4 µM (inactive),–,13.7 µM (inactive),16.3 µM (inactive),28.6 µM (inactive),12.3 µM (inactive),59.6 µM (inactive),1.84 µM (inactive),19.5 µM (inactive),33.5,16 µM (inactive),40.9 µM (inactive),28.9 µM (inactive),3.08 µM (inactive),11.5 µM (inactive)
CCc1c(Cl)nc(Cl)nc1Cl,0.076 µM (active),0.0834 µM (active),0.0484 µM (active),0.049 µM (active),0.122 µM (active),0.259 µM (active),1.17 µM (inactive),0.0208 µM (active),5.79 µM (inactive),1.95 µM (inactive),0.206 µM (active),0.448 µM (active),0.0578 µM (active),0.321 µM (active),0.0348,1.13 µM (inactive),0.542 µM (active),–,1.38 µM (inactive),0.0885 µM (active)
Nc1ncnc2c1ncn2[C@@H]1C[C@@H]1CO,> 100 µM (inactive),> 100 µM (inactive),–,> 100 µM (inactive),> 100 µM (inactive),> 100 µM (inactive),–,> 100 µM (inactive),> 100 µM (inactive),> 100 µM (inactive),> 100 µM (inactive),> 100 µM (inactive),> 100 µM (inactive),> 100 µM (inactive),> 100,> 100 µM (inactive),–,> 100 µM (inactive),> 100 µM (inactive),> 100 µM (inactive)
NC(=O)CSc1c2cc(O)ccc2nc2ccc(O)cc12,> 10 µM (inactive),> 10 µM (inactive),> 10 µM (inactive),> 10 µM (inactive),> 10 µM (inactive),> 10 µM (inactive),> 10 µM (inactive),> 10 µM (inactive),> 10 µM (inactive),> 10 µM (inactive),> 10 µM (inactive),> 10 µM (inactive),> 10 µM (inactive),> 10 µM (inactive),> 10,> 10 µM (inactive),> 10 µM (inactive),> 10 µM (inactive),–,> 10 µM (inactive)
S=C(Nc1ccc(Cl)cc1)c1ccc(CN2CCCCC2)s1,4.93 µM (inactive),4.03 µM (inactive),12.2 µM (inactive),3.02 µM (inactive),4.25 µM (inactive),2.94 µM (inactive),–,2.09 µM (inactive),10.8 µM (inactive),0.811 µM (active),1.81 µM (inactive),10.6 µM (inactive),13.9 µM (inactive),3.35 µM (inactive),4.72,37.9 µM (inactive),2.86 µM (inactive),25.1 µM (inactive),7.8 µM (inactive),1.8 µM (inactive)
Cc1ccc(S(=O)(=O)CNC(=O)C(O)(O)C(F)(F)F)cc1,–,> 100 µM (inactive),> 100 µM (inactive),> 100 µM (inactive),> 100 µM (inactive),> 100 µM (inactive),–,> 100 µM (inactive),> 100 µM (inactive),> 100 µM (inactive),> 100 µM (inactive),> 100 µM (inactive),> 100 µM (inactive),> 100 µM (inactive),> 100,> 100 µM (inactive),> 100 µM (inactive),> 100 µM (inactive),> 100 µM (inactive),> 100 µM (inactive)
C[C@@H](NC(C#N)c1ccco1)c1ccccc1 (some centres undefined),> 100 µM (inactive),> 100 µM (inactive),–,> 100 µM (inactive),> 100 µM (inactive),> 100 µM (inactive),> 100 µM (inactive),> 100 µM (inactive),> 100 µM (inactive),> 100 µM (inactive),> 100 µM (inactive),> 100 µM (inactive),> 100 µM (inactive),> 100 µM (inactive),> 100,> 100 µM (inactive),> 100 µM (inactive),–,> 100 µM (inactive),> 100 µM (inactive)
CC(C)CC(NC(=O)C(Cc1ccccc1)NC(=O)C(Cc1c[nH]c2ccccc12)NC(=O)CNC(=O)C(N)Cc1ccc(O)cc1)C(=O)O (centres undefined) (H-YGWFL-OH; configuration not given here),44.5 µM (inactive),34.9 µM (inactive),34.9 µM (inactive),24.5 µM (inactive),23.6 µM (inactive),35.4 µM (inactive),30.8 µM (inactive),–,32.3 µM (inactive),37.4 µM (inactive),24.3 µM (inactive),41.2 µM (inactive),37.4 µM (inactive),30.1 µM (inactive),69,42 µM (inactive),58.7 µM (inactive),81.3 µM (inactive),81.3 µM (inactive),27.4 µM (inactive)
